For 18 molecules, minimal effective concentration and Ki results are on record in patent US20160296499A1, “Spiroindoline Antiparasitic Derivatives” (ZOETIS SERVICES LLC, priority 2013, published 2016).

Structures are written as SMILES. Where two headings read alike, the source gives them in different places.

The test system of one experiment is Haemonchus contortus L3. Description: Haemonchus contortus, Larvae Stage 3 (HcL3) In Vitro Assay. As to conditions: Haemonchus contortus.
Experiment [1] concerns Dirofilaria immitis microfilariae. Description: Dirofilaria immitis, Microfilariae (DiMF) In Vitro Assay. As to conditions: Dirofilaria immitis.
In experiment [2] the target is T1, bovine vesicular acetylcholine transporter (VAChT) (Bos taurus, UniProt E1BK36).
T1 sequence (E1BK36 1-524): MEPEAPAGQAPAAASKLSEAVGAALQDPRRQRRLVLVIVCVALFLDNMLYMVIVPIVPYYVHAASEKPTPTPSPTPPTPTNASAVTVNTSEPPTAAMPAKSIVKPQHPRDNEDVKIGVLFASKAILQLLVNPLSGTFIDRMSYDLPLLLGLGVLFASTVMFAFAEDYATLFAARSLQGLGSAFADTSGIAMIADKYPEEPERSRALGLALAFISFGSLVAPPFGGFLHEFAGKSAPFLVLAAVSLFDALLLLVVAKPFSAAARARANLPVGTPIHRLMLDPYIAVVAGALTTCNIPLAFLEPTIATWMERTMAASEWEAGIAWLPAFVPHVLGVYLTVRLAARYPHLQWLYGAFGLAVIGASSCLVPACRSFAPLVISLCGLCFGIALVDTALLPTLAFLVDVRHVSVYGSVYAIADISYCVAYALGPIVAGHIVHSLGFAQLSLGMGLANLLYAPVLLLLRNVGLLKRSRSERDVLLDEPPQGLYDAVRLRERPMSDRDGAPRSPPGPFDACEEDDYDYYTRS
Description: Radioligand Binding Assay. As to conditions: Bovine binding Ki, CHO-K1 membranes with recombinant bovine VAChT, [3H]Compound X6 0.3 nM.

Where [3] appears, read: 96 h, read-out: HcL3 MEC, Minimal Effective Concentration whereby worm motility is inhibited by approximately 70%, 37° C., tested 0.001-100 μM.
Setting [4] is: 72 h, read-out: Di MF, MEC, decrease in microfilariae motility by visual assessment, curve starting at 100 μM.
Where [5] appears, read: 96 hours, 37° C., read-out: HcL3 MEC.

For `COc1ccc2ccc(CN3CCC4(CC3)CN(C(=O)NCc3ccnc(Cl)c3)c3ccc(C#N)cc34)c(C)c2n1` [Example 118, N-[(2-chloro-4-pyridyl)methyl]-5-cyano-1′-[(2-methoxy-8-methyl-7-quinolyl)methyl]spiro[indoline-3,4′-piperidine]-1-carboxamide], the figures for the minimal effective concentration (with Haemonchus contortus L3 (setting [3]); in experiment [1] (setting [4])) were 3.3 µM and 57.4 µM, respectively. Also, the inhibition constant Ki (usually a dissociation constant, usually derived from enzyme kinetics or from competition with a known ligand) in experiment [2] is 28.4 nM.
For `COc1ccc(-c2ccc3c(c2)C2(CCN(C/C=C/c4ccc(Cl)cc4)CC2)CN3C(=O)NCc2ccnc(Cl)c2)cn1` [Example 119, 1′-[(E)-3-(4-chlorophenyl)allyl]-N-[(2-chloro-4-pyridyl)methyl]-5-(6-methoxy-3-pyridyl)spiro[indoline-3,4′-piperidine]-1-carboxamide] the same measures were 100 µM, 10 µM and 177 nM.
As to `N#Cc1ccc(-c2ccc3c(c2)C2(CCN(C/C=C/c4ccc(C(F)(F)F)cc4)CC2)CN3C(=O)NCc2ccnc(Cl)c2)cn1` [Example 120, N-[(2-chloro-4-pyridyl)methyl]-5-(6-cyano-3-pyridyl)-1′-[(E)-3-[4-(trifluoromethyl)phenyl]allyl]spiro[indoline-3,4′-piperidine]-1-carboxamide], the values for the minimal effective concentration (in the experiment on Haemonchus contortus L3 (setting [3]); in experiment [1] (setting [4])) were 100 µM and 1.2 µM, respectively. Further, the inhibition constant (Ki) in experiment [2] came out at 13900 nM.
For `O=C(NCc1ccnc(Cl)c1)N1CC2(CCN(C/C=C/c3ccc(Cl)cc3)CC2)c2c(OC(F)(F)F)ccc(Cl)c21` [Example 121, (E)-7-chloro-1′-(3-(4-chlorophenyl)allyl)-N-((2-chloropyridin-4-yl)methyl)-4-(trifluoromethoxy)spiro[indoline-3,4′-piperidine]-1-carboxamide] the same measures were 100 µM, 6.9 µM and 1260 nM.
For `O=C(NCc1ccnc(Cl)c1)N1CC2(CCN(C/C=C/c3ccc(Cl)cc3)CC2)c2c(F)cc(C(F)(F)F)cc21` [Example 122, (E)-1′-(3-(4-chlorophenyl)allyl)-N-((2-chloropyridin-4-yl)methyl)-4-fluoro-6-(trifluoromethyl)spiro[indoline-3,4′-piperidine]-1-carboxamide], the minimal effective concentration amounted to 0.5 µM in the experiment with Haemonchus contortus L3 (setting [5]) and 10 µM in experiment [1] (72 hours, read-out: Di MF). Moreover, the inhibition constant Ki in experiment [2] came to 32.3 nM.
Regarding `Cc1ccc2c(c1)C1(CCN(C/C=C/c3ccc(Cl)c(Cl)c3)CC1)CN2C(=O)NCc1ccnc(Cl)c1` [Example 123, (E)-N-((2-chloropyridin-4-yl)methyl)-1′-(3-(3,4-dichlorophenyl)allyl)-5-methylspiro[indoline-3,4′-piperidine]-1-carboxamide], the minimal effective concentration in the experiment with Haemonchus contortus L3 (setting [5]) amounted to 1 µM; in experiment [1] (72 hours, read-out: Di MF), 10.2 µM. Besides, the Ki in experiment [2] turned out to be 20.8 nM.
For `O=C(NCc1ccnc(Cl)c1)N1CC2(CCN(C/C=C/c3ccc(C(F)(F)F)cn3)CC2)c2ccc(C(F)(F)F)cc21` [Example 124, (E)-N-((2-chloropyridin-4-yl)methyl)-6-(trifluoromethyl)-1′-(3-(5-(trifluoromethyl)pyridin-2-yl)allyl)spiro[indoline-3,4′-piperidine]-1-carboxamide], the minimal effective concentration in the experiment on Haemonchus contortus L3 (setting [3]) is 1 µM; in experiment [1] (setting [4]), 10 µM. Also, the inhibitory constant (Ki) in experiment [2] was 106 nM.
For `COc1ccc(/C=C/CN2CCC3(CC2)CN(C(=O)NCc2ccnc(Cl)c2)c2cc(C(F)(F)F)ccc23)cc1` [Example 125, (E)-N-((2-chloropyridin-4-yl)methyl)-1′-(3-(4-methoxyphenyl)allyl)-6-(trifluoromethyl)spiro[indoline-3,4′-piperidine]-1-carboxamide] the same measures were 1 µM, 10 µM and 20.4 nM.
As for `O=C(NCc1ccnc(Cl)c1)N1CC2(CCN(C/C=C/c3ccc(Cl)cc3)CC2)c2cc(F)c(C(F)(F)F)cc21` [Example 126, (E)-1′-(3-(4-chlorophenyl)allyl)-N-((2-chloropyridin-4-yl)methyl)-5-fluoro-6-(trifluoromethyl)spiro[indoline-3,4′-piperidine]-1-carboxamide], the minimal effective concentration was 1 µM with Haemonchus contortus L3 (setting [5]) and 10 µM in experiment [1] (72 hours, read-out: Di MF). In addition, the inhibition constant (Ki) in experiment [2] is 33 nM.
As for `O=C(NCc1ccnc(F)c1)N1CC2(CCN(C/C=C/c3ccc(Cl)cc3)CC2)c2ccc(OC(F)(F)F)cc21` [Example 127, (E)-1′-(3-(4-chlorophenyl)allyl)-N-((2-fluoropyridin-4-yl)methyl)-6-(trifluoromethoxy)spiro[indoline-3,4′-piperidine]-1-carboxamide], the minimal effective concentration with Haemonchus contortus L3 (setting [3]) turned out to be 1 µM; in experiment [1] (setting [4]) it was 10 µM. The Ki in experiment [2] turned out to be 78.4 nM.
For `O=C(NCc1ccnc(Cl)c1)N1CC2(CCN(C/C=C/c3ccc(C(F)(F)F)cc3)CC2)c2cc(Cl)c(F)cc21` [Example 128, (E)-5-chloro-N-((2-chloropyridin-4-yl)methyl)-6-fluoro-1′-(3-(4-(trifluoromethyl)phenyl)allyl)spiro[indoline-3,4′-piperidine]-1-carboxamide] the same measures were 1 µM, 3.3 µM and 44 nM.
Take `O=C(NCc1ccnc(Cl)c1)N1CC2(CCN(C/C=C/c3ccc(Cl)c(Cl)c3)CC2)c2cc(F)c(C(F)(F)F)cc21` [Example 129, (E)-N-((2-chloropyridin-4-yl)methyl)-1′-(3-(3,4-dichlorophenyl)allyl)-5-fluoro-6-(trifluoromethyl)spiro[indoline-3,4′-piperidine]-1-carboxamide]: the minimal effective concentration in the experiment on Haemonchus contortus L3 (setting [5]) turned out to be 1.5 µM; in experiment [1] (72 hours, read-out: Di MF), 10 µM. Moreover, the Ki in experiment [2] was 32.8 nM.
Consider `O=C(NCc1ccnc(Cl)c1)N1CC2(CCN(C/C=C/c3ccc(OC(F)(F)F)cc3)CC2)c2ccc(C(F)(F)F)cc21` [Example 130, (E)-N-((2-chloropyridin-4-yl)methyl)-1′-(3-(4-(trifluoromethoxy)phenyl)allyl)-6-(trifluoromethyl)spiro[indoline-3,4′-piperidine]-1-carboxamide], for which the minimal effective concentration was 1.8 µM in the experiment with Haemonchus contortus L3 (setting [3]) and 18.2 µM in experiment [1] (setting [4]). The Ki in experiment [2] was determined as 193 nM.
Take `O=C(NCc1ccnc(Cl)c1)N1CC2(CCN(C/C=C/c3ccc(Cl)c(Cl)c3)CC2)c2c(Cl)cccc21` [Example 131, (E)-4-chloro-N-((2-chloropyridin-4-yl)methyl)-1′-(3-(3,4-dichlorophenyl)allyl) spiro[indoline-3,4′-piperidine]-1-carboxamide]: the results for the minimal effective concentration (in the experiment with Haemonchus contortus L3 (setting [3]); in experiment [1] (setting [4])) were 3.3 µM and 10 µM, respectively. Also, in experiment [2], the Ki amounted to 184 nM.
Regarding `N#Cc1cc2c(cc1C(F)(F)F)N(C(=O)NCc1ccnc(Cl)c1)CC21CCN(C/C=C/c2ccc(Cl)c(Cl)c2)CC1` [Example 132, (E)-N-((2-chloropyridin-4-yl)methyl)-5-cyano-1′-(3-(3,4-dichlorophenyl)allyl)-6-(trifluoromethyl)spiro[indoline-3,4′-piperidine]-1-carboxamide], the minimal effective concentration in the experiment on Haemonchus contortus L3 (setting [5]) was found to be 3.3 µM; in experiment [1] (72 hours, read-out: Di MF), 3.3 µM. Also, in experiment [2], the Ki came out at 49.9 nM.
Consider `O=C(NCc1ccnc(Cl)c1)N1CC2(CCN(C/C=C/c3ccc(Cl)c(Cl)c3)CC2)c2cc(C(F)(F)F)ccc21` [Example 133, (E)-N-((2-chloropyridin-4-yl)methyl)-1′-(3-(3,4-dichlorophenyl)allyl)-5-(trifluoromethyl)spiro[indoline-3,4′-piperidine]-1-carboxamide], for which the minimal effective concentration in the experiment on Haemonchus contortus L3 (setting [5]) was determined as 3.3 µM; in experiment [1] (72 hours, read-out: Di MF), 7.6 µM. Further, in experiment [2], the Ki came out at 546 nM.
As for `O=C(NCc1ccnc(Cl)c1)N1CC2(CCN(C/C=C/c3ccc(Cl)c(Cl)c3)CC2)c2cc(Cl)c(C(F)(F)F)cc21` [Example 135, (E)-5-chloro-N-((2-chloropyridin-4-yl)methyl)-1′-(3-(3,4-dichlorophenyl)allyl)-6-(trifluoromethyl)spiro[indoline-3,4′-piperidine]-1-carboxamide], the minimal effective concentration with Haemonchus contortus L3 (setting [5]) turned out to be 3.3 µM; in experiment [1] (72 hours, read-out: Di MF), 57.4 µM. Moreover, the Ki in experiment [2] turned out to be 118 nM.
For `O=C(NCc1ccnc(Cl)c1)N1CC2(CCN(C/C=C/c3ccc(Cl)c(Cl)c3)CC2)c2c1ccc(Cl)c2Cl` [Example 136, (E)-4,5-dichloro-N-((2-chloropyridin-4-yl)methyl)-1′-(3-(3,4-dichlorophenyl)allyl)spiro[indoline-3,4′-piperidine]-1-carboxamide] the same measures were 3.3 µM, 100 µM and 160 nM.
